Laboratory results published in patent EP0144845A1, “Indolylacetic acid derivatives and preparations containing same for medical treatments” (GREEN CROSS CORPORATION, priority 1983, dated 1985).

What was measured:
[1] = system: carrageenan- induced edema in rats; assay: Anti-inflammatory action: carrageenan-induced leg edema in rats; assay type: in vivo, Wister male rats; details: 0.3 mg/kg by the tail venous route 1 hour after carrageenan, fat emulsions, leg volume vs physiological saline groups 3 hours after carrageenan
Protocol: Wister male rats were divided into groups of 6 rats each. 0.1 mℓ of a 1% solution of carrageenan in physiological saline was injected subcutaneously in the heel of a right hind leg for each rat to develop a leg edema. One hour after the injection of carrageenan, a drug to be tested was injected in a dosage of 0.3 mg/kg by the tail venous route. Thereafter the leg volume was measured with suitable time intervals.
The fat emulsions prepared in Preparation Examples 1 to 4 were tested. As a control drug, physiological saline was used.
The degree of the anti-inflammatory action was indicated as an inhibitory ratio in connection with the leg volume of physiological saline-administered groups 3 hours after the injection of carrageenan.

[2] = Solubility in soybean oil (crystal precipitation on standing); assay type: physicochemical; details: 200 mg dissolved in 1 mL soybean oil at 70°C, then standing at 25°C for 2 days and nights
Protocol: In order to examine the solubility of the above-obtained substance in soybean oil, 200 mg of the substance was dissolved in 1 m£ of soybean oil while heating at 70°C and, thereafter, the resulting solution was allowed to stand at 25°C for 2 days and nights.

Compound: CCCCCCOC(=O)COC(=O)Cc1c(C)n(C(=O)c2ccc(Cl)cc2)c2ccc(OC)cc12 [Example 2, Hexyloxycarbonylmethyl indomethacin ester]
- Anti-inflammatory Action Edema Inhibition Ratio (%) [1]: 62%

Compound: CCCCOC(=O)COC(=O)Cc1c(C)n(C(=O)c2ccc(F)cc2)c2ccc(OC)cc12 [Example 4, butoxycarbonylmethyl 1-(p-fluorobenzoyl)-5-methoxy-2-methylindole-3-acetate]
- solubility in soybean oil: precipitation of crystals [2]: Precipitation of crystals was not observed at all
- Anti-inflammatory Action Edema Inhibition Ratio (%) [1]: 68%

Compound: CCCCOC(=O)COC(=O)Cc1c(C)n(C(=O)c2ccc(Cl)cc2)c2ccc(OC)cc12 [Example 1, butoxycarbonylmethyl indomethacin ester]
- Anti-inflammatory Action Edema Inhibition Ratio (%) [1]: 60%

Compound: COc1ccc2c(c1)c(CC(=O)OCOC(=O)C(C)(C)C)c(C)n2C(=O)c1ccc(Cl)cc1 [Example 3, Pivaloyloxymethyl indomethacin ester]
- Anti-inflammatory Action Edema Inhibition Ratio (%) [1]: 58%
